Four molecules from ChEMBL document CHEMBL1201862, “PubChem BioAssay data set” (2004) can be followed below.

Among the test systems are UACC-62; A498; MDA-MB-435; SW-620; MOLT-4; COLO 205; NCI-H226; SN12C; SR; SF-268; HOP-92; KM12; TK-10; SK-MEL-5; BT-549; SK-OV-3; RPMI-8226; Malme-3M; HCT-15.
Holding throughout (experiment): NCI anticancer screen, dose series, 48 h

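How tested: cells in 96-well plates exposed to compound for 48 hours at five concentrations. Here, GI50 denotes the concentration required for 50% inhibition of growth.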 The source made the active and inactive calls. No stated cut-off is given here; in the data, active = GI50 up to about 1.1 µM and inactive = higher.

As to `C(=N\c1nc2cc3sc(/N=C/c4ccccc4)nc3cc2s1)/c1ccccc1`, the GI50 was 72.9 µM (inactive) in the experiment on UACC-62; > 95.7 µM (inactive) in the experiment with A498; > 100 µM (inactive) in the experiment with MDA-MB-435; 37.4 µM (inactive) in the experiment on SW-620; 9.75 µM (inactive) with MOLT-4; 4.01 µM (inactive) in the experiment with COLO 205. Also, the GI50 in the experiment with NCI-H226 was 20.7 µM (inactive); in the experiment with SN12C, 69.3 µM (inactive); in the experiment with SR, 10.6 µM (inactive); in the experiment with SF-268, > 100 µM (inactive); in the experiment with HOP-92, > 76.9 µM (inactive); with KM12, > 100 µM (inactive). The GI50 in the experiment with TK-10 was > 50.6 µM (inactive); in the experiment on SK-MEL-5, 25.5 µM (inactive); in the experiment with BT-549, 54.2 µM (inactive); in the experiment on SK-OV-3, > 100 µM (inactive); in the experiment on RPMI-8226, 29.7 µM (inactive); in the experiment on Malme-3M, > 65.3 µM (inactive). The molecule also gave a GI50 in the experiment with HCT-15 of 46 µM.
In the case of `COc1cc2c(/C=C3/C(=O)Nc4ccc(Cl)cc43)c(Cl)[nH]c2cc1C`, the GI50 in the experiment with UACC-62 is 0.288 µM (active); with A498, 10.6 µM (inactive); in the experiment with MDA-MB-435, 0.201 µM (active); with SW-620, 0.596 µM (active); in the experiment on MOLT-4, 0.294 µM (active); in the experiment on COLO 205 it was 0.352 µM (active). Besides, the GI50 is 1.1 µM (active) in the experiment on NCI-H226; 0.325 µM (active) in the experiment on SN12C; 0.32 µM (active) in the experiment on SR; 1.03 µM (active) in the experiment with SF-268; 10.6 µM (inactive) with HOP-92; 0.416 µM (active) with KM12. For the same molecule, the GI50 was 1.05 µM (active) with TK-10; 0.592 µM (active) with SK-MEL-5; 0.181 µM (active) with BT-549; 0.284 µM (active) in the experiment on SK-OV-3; 0.91 µM (active) in the experiment on RPMI-8226; 0.82 µM (active) in the experiment with Malme-3M. The molecule further showed a GI50 with HCT-15 of 0.449 µM.
`c1nnc(NCNc2nncs2)s1`: the GI50 in the experiment with UACC-62 is 93.3 µM (inactive); in the experiment on A498, 4.16 µM (inactive); in the experiment on MDA-MB-435, 28.6 µM (inactive); with SW-620 it was 45.8 µM (inactive); with MOLT-4, 29.6 µM (inactive); in the experiment with COLO 205, 56.1 µM (inactive). For the same molecule, the GI50 is > 100 µM (inactive) in the experiment on NCI-H226; 30.9 µM (inactive) in the experiment on SN12C; 36.8 µM (inactive) in the experiment with SR; > 100 µM (inactive) with SF-268; > 100 µM (inactive) in the experiment on HOP-92; 50.1 µM (inactive) with KM12. Moreover, the GI50 in the experiment on TK-10 was 86.9 µM (inactive); with SK-MEL-5, 62.2 µM (inactive); in the experiment on BT-549, > 100 µM (inactive); in the experiment with SK-OV-3, 23.7 µM (inactive); in the experiment on RPMI-8226, 72.6 µM (inactive); in the experiment with Malme-3M, > 100 µM (inactive). In addition, in the experiment on HCT-15, the GI50 is 40.2 µM.
As to `Cc1c(O)nc(/C=C/C(=O)O)nc1C(=O)O`, the GI50 with UACC-62, in the experiment on A498, in the experiment with MDA-MB-435, in the experiment with SW-620, in the experiment on MOLT-4 and in the experiment with COLO 205 was > 100 µM (inactive) in each case. Further, the GI50 in the experiment with NCI-H226, in the experiment with SN12C, in the experiment on SR, in the experiment with SF-268, in the experiment with HOP-92 and in the experiment with KM12 was > 100 µM (inactive) each time. The GI50 with TK-10, with SK-MEL-5, in the experiment with BT-549, in the experiment with SK-OV-3, with RPMI-8226 and with Malme-3M was > 100 µM (inactive) each time. The molecule also had a GI50 with HCT-15 of more than 100 µM.
